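1) Cells in 96-well plates. 2) Compound, 48 h, 5 concentrations. 3) Linear interpolation between surrounding doses. 4) Unreached endpoint = highest concentration. GI50 marks 50% less growth. TGI is the concentration that stops growth completely.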
Tests used:
Assay in all cases: growth of human tumour cells (NCI), 48 h
786-0 renal = test system: 786-0 renal
A498 renal = test system: A498 renal
A549 NSCLC = test system: A549 NSCLC
ACHN renal = test system: ACHN renal
BT-549 breast = test system: BT-549 breast
CAKI-1 renal = test system: CAKI-1 renal
CCRF-CEM leukemia = test system: CCRF-CEM leukemia
COLO 205 colon = test system: COLO 205 colon
DU-145 prostate = test system: DU-145 prostate
EKVX NSCLC = test system: EKVX NSCLC
HCC-2998 colon = test system: HCC-2998 colon
HCT-116 colon = test system: HCT-116 colon
HCT-15 colon = test system: HCT-15 colon
HL-60(TB) leukemia = test system: HL-60(TB) leukemia
HOP-62 NSCLC = test system: HOP-62 NSCLC
HOP-92 NSCLC = test system: HOP-92 NSCLC
HS 578T breast = test system: HS 578T breast
HT29 colon = test system: HT29 colon
IGROV1 ovarian = test system: IGROV1 ovarian
K-562 leukemia = test system: K-562 leukemia
KM12 colon = test system: KM12 colon
LOX IMVI melanoma = test system: LOX IMVI melanoma
M14 melanoma = test system: M14 melanoma
MALME-3M melanoma = test system: MALME-3M melanoma
MCF7 breast = test system: MCF7 breast
MDA-MB-231 breast = test system: MDA-MB-231 breast
MDA-MB-435 = test system: MDA-MB-435
MOLT-4 leukemia = test system: MOLT-4 leukemia
NCI-H226 lung = test system: NCI-H226 lung
NCI-H23 lung = test system: NCI-H23 lung
NCI-H522 lung = test system: NCI-H522 lung
NCI/ADR-RES ovarian = test system: NCI/ADR-RES ovarian
OVCAR-4 ovarian = test system: OVCAR-4 ovarian
OVCAR-5 ovarian = test system: OVCAR-5 ovarian
OVCAR-8 ovarian = test system: OVCAR-8 ovarian
PC-3 prostate = test system: PC-3 prostate
RPMI-8226 leukemia = test system: RPMI-8226 leukemia
SF-268 CNS = test system: SF-268 CNS
SF-295 CNS = test system: SF-295 CNS
SF-539 CNS = test system: SF-539 CNS
SK-MEL-2 melanoma = test system: SK-MEL-2 melanoma
SK-MEL-28 melanoma = test system: SK-MEL-28 melanoma
SK-MEL-5 melanoma = test system: SK-MEL-5 melanoma
SK-OV-3 ovarian = test system: SK-OV-3 ovarian
SN12C renal = test system: SN12C renal
SNB-19 CNS = test system: SNB-19 CNS
SNB-75 CNS = test system: SNB-75 CNS
SR leukemia = test system: SR leukemia
SW-620 colon = test system: SW-620 colon
T-47D breast = test system: T-47D breast
TK-10 renal = test system: TK-10 renal
U251 CNS = test system: U251 CNS
UACC-257 melanoma = test system: UACC-257 melanoma
UACC-62 melanoma = test system: UACC-62 melanoma
UO-31 renal = test system: UO-31 renal

## CCC1=Cc2cc(OC)ccc2OC12C=Cc1cc(OC)ccc1O2 (configuration not stated)
786-0 renal
  GI50: 676 nM
  TGI: > 100000 nM
A498 renal
  GI50: 250 nM
  TGI: 827 nM
A549 NSCLC
  GI50: 809 nM
  TGI: > 100000 nM
ACHN renal
  GI50: 789 nM
  TGI: > 100000 nM
BT-549 breast
  GI50: 499 nM
  TGI: 3810 nM
CAKI-1 renal
  GI50: 504 nM
  TGI: > 100000 nM
CCRF-CEM leukemia
  GI50: 398 nM
  TGI: > 100000 nM
COLO 205 colon
  GI50: 326 nM
  TGI: 898 nM
DU-145 prostate
  GI50: 481 nM
  TGI: > 100000 nM
EKVX NSCLC
  GI50: 678 nM
  TGI: > 100000 nM
HCC-2998 colon
  GI50: 1710 nM
  TGI: > 100000 nM
HCT-116 colon
  GI50: 518 nM
  TGI: > 100000 nM
HCT-15 colon
  GI50: 450 nM
  TGI: > 100000 nM
HL-60(TB) leukemia
  GI50: 331 nM
  TGI: > 100000 nM
HOP-62 NSCLC
  GI50: 594 nM
  TGI: > 100000 nM
HOP-92 NSCLC
  GI50: 964 nM
  TGI: > 26700 nM
HS 578T breast
  GI50: 298 nM
HT29 colon
  GI50: 347 nM
  TGI: 1270 nM
IGROV1 ovarian
  GI50: 739 nM
  TGI: > 100000 nM
K-562 leukemia
  GI50: 379 nM
  TGI: > 100000 nM
KM12 colon
  GI50: 423 nM
  TGI: > 100000 nM
LOX IMVI melanoma
  GI50: 484 nM
  TGI: > 100000 nM
M14 melanoma
  GI50: 366 nM
MALME-3M melanoma
  GI50: 624 nM
  TGI: > 100000 nM
MCF7 breast
  GI50: 389 nM
  TGI: > 100000 nM
MDA-MB-231 breast
  GI50: 964 nM
  TGI: > 100000 nM
MDA-MB-435
  GI50: 228 nM
  TGI: 503 nM
MOLT-4 leukemia
  GI50: 500 nM
  TGI: > 100000 nM
NCI-H226 lung
  GI50: 1060 nM
  TGI: > 100000 nM
NCI-H23 lung
  GI50: 1070 nM
  TGI: > 100000 nM
NCI-H522 lung
  GI50: 283 nM
  TGI: 936 nM
NCI/ADR-RES ovarian
  GI50: 421 nM
  TGI: > 100000 nM
OVCAR-4 ovarian
  GI50: > 100000 nM
  TGI: > 100000 nM
OVCAR-5 ovarian
  GI50: 936 nM
  TGI: > 100000 nM
OVCAR-8 ovarian
  GI50: 596 nM
  TGI: > 100000 nM
PC-3 prostate
  GI50: 536 nM
  TGI: > 100000 nM
RPMI-8226 leukemia
  GI50: 393 nM
  TGI: > 100000 nM
SF-268 CNS
  GI50: 1040 nM
  TGI: > 100000 nM
SF-295 CNS
  GI50: 418 nM
  TGI: > 100000 nM
SF-539 CNS
  GI50: 328 nM
  TGI: 2150 nM
SK-MEL-2 melanoma
  GI50: 303 nM
  TGI: 896 nM
SK-MEL-28 melanoma
  GI50: > 100000 nM
  TGI: > 100000 nM
SK-MEL-5 melanoma
  GI50: 1420 nM
  TGI: > 100000 nM
SK-OV-3 ovarian
  GI50: 563 nM
  TGI: > 100000 nM
SN12C renal
  GI50: 796 nM
  TGI: > 100000 nM
SNB-19 CNS
  GI50: 550 nM
  TGI: > 100000 nM
SNB-75 CNS
  GI50: 218 nM
  TGI: 720 nM
SR leukemia
  GI50: 327 nM
  TGI: > 100000 nM
SW-620 colon
  GI50: 385 nM
  TGI: > 100000 nM
T-47D breast
  TGI: > 100000 nM
TK-10 renal
  GI50: > 100000 nM
  TGI: > 100000 nM
U251 CNS
  GI50: 517 nM
  TGI: > 100000 nM
UACC-257 melanoma
  GI50: 977 nM
  TGI: > 100000 nM
UACC-62 melanoma
  GI50: 553 nM
  TGI: > 100000 nM
UO-31 renal
  GI50: 1150 nM
  TGI: > 100000 nM

From PubChem BioAssay (NCI)
